Source: patent US8404747B2, “Compositions and methods for modulating interaction between polypeptides” (The General Hospital Corporation, priority 2004, dated 2013)
Entries after “also recorded” stand apart in the source; their conditions may differ. Like-named read-outs stand apart in the source and are kept apart here.

Key:
[1] = test system: aggregation of 103Q in PC12 cells; test: polyQ (103Q) aggregation in ecdyson-inducible PC12 cells; assay type: cell-based, rat; conditions: Rattus norvegicus, PC-12
Experimental: (§1) To study the inhibitors we identified using the yeast screen in mammalian cells, we employed ecdyson-inducible rat phaeochromocytoma (PC12) cells. Compounds were tested in two clones, 14A2/5 and 14A2/6, with highest aggregation rate. We incubated undifferentiated PC12 cells with muristerone A to induce 103Q expression, and we exposed the cells to compounds at concentrations ranging from 1 to 10 μM. […] All compounds were non-toxic except C2, which was toxic at concentrations higher than 5 μM.
We tested these analogs at concentrations ranging from 0.025 μM to 5.0 μM for their effects on polyQ aggregation in PC12 cells. Among 24 analogs of C1; 28 analogs of C2; 24 analogs of C3, and 53 analogs of C4, we identified several potent inhibitors of polyQ aggregation. From our C2 focus library, we isolated compound C2-8 (B2 in Table 2), which inhibits polyQ aggregation with an IC50 value 50 nM. We also identified C2-10 (B6 in Table 2) and C2-11 (M16 (formula V(n)) in Table 5), and B7, B8 and B9 in Table 2. From our C3 focus library, we isolated compound C3-5 (M22 (formula V(t)) in Table 5) (having an IC50 value of 100 nM) and compound C3-6 (M17 (formula V(o)) in Table 5) (having an IC50 value of 5 μM). From our C4 library, we isolated compound C4-7 (A31 in Table 1), which has an IC50 value 100 nM. We also identified C4-34 (A3 in Table 1).

[2] = target: T1, Recombinant HD Q51 polypeptide (Homo sapiens, UniProt P42858, INS38QQQQQQQQQQQQQQQQQQQQQQQQQQQQQQ); test: cell-free trap assay of purified polyQ; assay type: biochemical
T1 construct: made in house
T1 sequence (P42858 with tags, fused parts or gaps with the stated changes): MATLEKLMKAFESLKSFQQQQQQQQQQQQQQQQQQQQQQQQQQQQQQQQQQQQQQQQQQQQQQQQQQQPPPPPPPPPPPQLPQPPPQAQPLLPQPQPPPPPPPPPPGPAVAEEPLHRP
Experimental: To determine whether C2 could directly interfere with polyQ aggregation, we reproduced this process in vitro and assayed the inhibitory effects of the compounds in a cell-free trap assay. Recombinant HD Q51 polypeptide, purified from bacteria, was incubated in the presence or in the absence of C2 for a time sufficient to allow aggregation. Then, upon heat-denaturation in SDS buffer, samples were filtered through a cellulose acetate membrane. Harsh denaturation conditions separated unaggregated soluble peptides, which passed through the membrane, and insoluble aggregates, which were retained on the membrane. The polyQ aggregates trapped on the membrane were subsequently immunostained and quantified.
Congo Red, which is structurally unrelated to C2-8, was used as a control.

[3] = test system: PC12 cells; test: toxicity in PC12 cells; assay type: cell-based, rat; conditions: PC12 cells
Experimental: as §1
In the C1 library, no inhibitors of polyQ aggregation with high potency were found.

[4] = test system: p53 protein; test: levels of endogenous p53 protein in PC12 cells; assay type: cell-based, rat
Experimental: The protein levels of Htt fragments containing 103Q in PC12 cells were not affected by incubation with compounds at the concentrations tested. Furthermore, proteolytic capacity of cells treated with compound C2 appeared to be normal, since levels of a highly unstable endogenous p53 protein in PC12 cells were not changed.

[5] = test system: Cos1 cells; test: toxicity for Cos1 cells; assay type: cell-based
Experimental: The inhibitory activity we observed with C1-C4 in the PC12 cell model described above was confirmed in Cos1 cells transiently transfected with a CMV promoter-based DNA construct that encodes an Htt exon I fragment of Huntington's disease protein (Htt)) having 51 consecutive glutamine residues (HD Q51). When expressed in Cos1 cells, HD 51Q polypeptides readily form aggregates. Transfected Cos1 cells were incubated with C1-C4 compounds in culture medium and lysed. The lysates were then heat-denatured in SDS and passed through a cellulose acetate membrane, which captures aggregated, but not soluble polypeptides. Polyglutamine aggregates trapped on membranes were detected by immunostaining with antibody specific to extended polyQ. Pre-incubation of cells with compounds C1, C3, and C4 decreased the amount of retained polyQ, indicating inhibitory effects on polyQ aggregation. The IC50 for compound C1 was 10 μM and the IC50 for compounds C3 and C4 was 5 μM. As C2 was toxic for Cos1 cells, its effect on aggregation was not determined.

[6] = test system: polyQ aggregates (HD Q150) in neurons of R6/2 mouse brain slices; test: polyQ aggregation in R6/2 brain slice cultures; assay type: cell-based; conditions: 3-week time point
Experimental: The effects of the selected compounds on polyQ aggregation in neuronal tissues were assessed in brain slice cultures from the transgenic mouse R6/2 model of HD. R6/2 mice ubiquitously express human Huntingtin exon I containing 150Q (HD Q150), which causes neuropathology resembling key neurological changes in HD patients. Formation of neuronal polyQ aggregates precedes pathological behavioural changes in R6/2 mice. An organotypic slice culture assay has been developed in order to establish an ex vivo system that closely models the process of aggregation occurring in R6/2 mouse brains. […] The potency of any aggregate inhibitor can be assessed directly in neurons in brain slices (thus bypassing the blood brain barrier, the major obstacle to test compounds in neuronal tissues).
Aggregation in brain slice cultures was assessed during four weeks using three parameters: (1) the number of aggregates per square millimeter, (2) the density of individual aggregates, and (3) the size of the aggregates. These parameters can be assessed in any of the assays described herein. […] To obtain statistically significant data, 20 sections for each sample were quantified with a macro computer program (Paul Wetton at Image Associates, UK), which measured aggregate count, aggregate density and aggregate size. […]

[7] = test system: cells; test: nonspecific toxicity to cells; assay type: cell-based
[8] = test system: SP1 trancription factor binding motif (6XSP1) promoter; test: 6XSP1 luciferase transcription-based assay in 111Q/111Q striatum double knock-in cells; assay type: cell-based, mouse; conditions: 6XSP1 luciferase reporter
Experimental: FIGS. 1A-1C. FIG. 1A is a bar graph showing luciferase expression in Sp1-luc/111Q striatum double knock-in cells following treatment with different compounds, as indicated. Fluorescence was measured 24 hours after addition of compound. FIG. 1B is a bar graph as described in FIG. 1A. Fluorescence was measured 48 hours after addition of compound. FIG. 1C is a bar graph as described in FIG. 1A. Fluorescence was measured 72 hours after addition of compound.
We conducted structure activity relationship (SAR) studies to optimize transcription activation. We developed a novel transcription-based assay for this purpose. A luciferase reporter gene was stably integrated into 111Q/111Q striatum double knock-in cells and constitutively expressed under control of a promoter containing six copies of the SP1 trancription factor binding motif (6XSP1). In this system, C9 was determined to have an EC200 of 7.5 μM.

[9] = test system: HDAc; test: HDAc activity; assay type: biochemical
[10] = test system: DNA; test: DNA binding activity
[11] = test system: polyQ-containing polypeptides; test: aggregation of polyQ-containing polypeptides, assay not specified
[12] = test system: striatum of 11Q/111Q cells and PC12 cells; test: transcriptional activation or repression in striatum 111Q cells and PC12 cells; assay type: cell-based
Excerpt: Biochemical activity associated with C9-2 is not well understood. […] Future studies include testing the compound for anti-apoptotic activity, and transcriptional profiling using a striatum cell line derived from a double knock-out mutant htt mouse. The C9-2 analogs C9-2B (A30 in Table 1) and C9-2A (control) (A29 in Table 1) are being tested for an effect on photoreceptor neurodegeneration in the Drosophila HD model.

[13] = test system: photoreceptor neurons; test: Drosophila HD photoreceptor neurodegeneration model; assay type: in vivo
Excerpt: A variety of animal models of Huntington disease have been developed. Examination of the degeneration of photoreceptor neurons facilitated by extended polyQ expression is one such model (Jackson et al., Neuron 21:633-642, 1998).
We used the photoreceptor model in Drosophila to test a variety of different compounds, including naphthylamine derivatives, for an effect on neurodegeneration. […] C9-2 is 2-(3-methoxypropyl)-1H-benzo[de]isoquinoline-1,3(2H)-dione.

[14] = test system: proteasomal dysfunction; test: proteasomal dysfunction in PC12 cells expressing extended polyQ; assay type: cell-based
[15] = test system: htt103Q-EGFP; test: PC12 htt103Q-EGFP fluorescence assay; assay type: cell-based; conditions: PC12 cells
Excerpt: A PC12 cell line was engineered to express extended polyQ under the control of an ecdysone-inducible promoter. In the assay cell line, an N-terminal fragment of htt containing an extended polyQ tract was stably expressed as a fusion with EGFP (htt103Q-EGFP), from the pIND vector. Expression of extended polyQ in these cells was controlled by addition of an ecdysone analog, in this case muristerone A. In this assay, EGFP fluorescence directly correlated with htt103Q-EGFP expression levels. This system was designed to assess the effects of specific compounds on overall levels of extended polyglutamines in cells, using a simple fluorescent-based read-out.

**Q.** With `O=C(Nc1ccc(Br)cc1)c1ccc(Br)c(S(=O)(=O)NC2CCCCC2)c1` [Compound C2, 4-Bromo-N-(4-bromo-phenyl)-3-cyclohexylsulfamoyl-benzamide] as the molecule, how does the IC50 ([1]; PC12 clones 14A2/5 and 14A2/6, muristerone A induced, 1 to 10 μM, read-out: IC50, aggregation of 103Q) read?
**A.** 5 µM

**Q.** And the “aggregation of pure polyglutamines in vitro” value ([2]; cell-free, up to 100 mM)?
**A.** failed to block aggregation

**Q.** And the toxic concentrations [3]?
**A.** higher than 5 μM

**Q.** What about the “levels of endogenous p53 protein” value [4] of the same molecule?
**A.** not changed

**Q.** What about the “toxicity for Cos1 cells” value [5] of the same molecule?
**A.** toxic

**Q.** Which results are given for `O=C(Nc1ccc(Br)cc1)c1cccc(S(=O)(=O)Nc2ccc(Br)cc2)c1` [Compound C2-8, N-(4-Bromo-phenyl)-3-(4-bromo-phenylsulfamoyl)-benzamide]?
**A.** IC50 ([1]; PC12 cells, focus library analogs, 0.025 μM to 5.0 μM, read-out: IC50, polyQ aggregation): 0.05 µM; IC50 ([2]; cell-free trap assay, read-out: IC50, aggregation of purified polyQ): 25 µM; concentration inhibiting aggregates intensity and area [6]: 10 µM

**Q.** What does the source list for `CN(C)CCN1C(=O)c2cccc3cccc(c23)C1=O` [Compound C9-1B, 2-(2-Dimethylamino-ethyl)-benzo[de]isoquinoline-1,3-dione]?
**A.** range of weak nonspecific toxicity [7]: 1.25 to 5.0 µM; EC200, transcription activation [8]: 50 nM

**Q.** How did the “direct inhibition of HDAc activity” value [9] turn out when `COCCCN1C(=O)c2cccc3cccc(c23)C1=O` [Compound C9-2, 2-(3-Methoxy-propyl)-benzo[de]isoquinoline-1,3-dione] was run?
**A.** does not appear to inhibit

**Q.** What about the DNA binding activity [10] of the same molecule?
**A.** nor has DNA binding activity been detected

**Q.** What about the effect on aggregation [11] of the same molecule?
**A.** does not appear to suppress aggregation; also recorded: facilitate protein-protein aggregation

**Q.** And the “transcriptional activation or repression” value [12]?
**A.** no transcriptional activation or repression

**Q.** And the transcription activation ([8]; CG4 among CG series, less potent than C9-4)?
**A.** did not effectively activate transcription

**Q.** And the “neurodegeneration of photoreceptor neurons” value [13]?
**A.** dramatic neuroprotection

**Q.** For `O=C1c2cccc3cccc(c23)C(=O)N1CCN1CCCCC1` [Compound C9-4, 2-(2-Piperidin-1-yl-ethyl)-benzo[de]isoquinoline-1,3-dione], which HDAc inhibitory activity ([9]; at high concentrations, down-regulation of HDAc 5) is on record?
**A.** indirect HDAc inhibitory activity

**Q.** `CN(C)CCCN1C(=O)c2cccc3cccc(c23)C1=O` [Compound C91, 2-(3-Dimethylamino-propyl)-benzo[de]isoquinoline-1,3-dione] was tested. Which effect on aggregation [11] did it give?
**A.** facilitate protein-protein aggregation

**Q.** And the “EC200, transcription activation” value [8]?
**A.** 4000 nM

**Q.** What does the source list for `CCOC(=O)c1c(NC(=O)Cc2ccc(OC)cc2)sc(C(=O)Nc2ccccc2OC)c1C` [Compound D1, 2-[2-(4-Methoxy-phenyl)-acetylamino]-5-(2-methoxy-phenylcarbamoyl)-4-methyl-thiophene-3-carboxylic acid ethyl ester]?
**A.** proteasomal dysfunction phenotype [14]: relieved this phenotype; effect on protein aggregation [15]: facilitators of protein aggregation

**Q.** With `CCOC(=O)c1c(NC(=O)c2ccccc2C)sc(C(=O)Nc2ccccc2OC)c1C` [Compound D2, 5-(2-Methoxy-phenylcarbamoyl)-4-methyl-2-(2-methyl-benzoylamino)-thiophene-3-carboxylic acid ethyl ester] as the molecule, how does the proteasomal dysfunction phenotype [14] read?
**A.** relieved this phenotype

**Q.** What about the “effect on protein aggregation” value [15] of the same molecule?
**A.** facilitators of protein aggregation
